The values that follow come from ChEMBL document CHEMBL1149069, “SB-202742, a novel beta-lactamase inhibitor isolated from Spondias mombin” (J Nat Prod, 1994).

The test concerns the target Beta-lactamase TEM-2 (Escherichia coli) (UniProt P62593). Kind of test: Inhibition of Escherichia coli W3110 beta-lactamase TEM2 assessed as inhibition of nitrocefin hydrolysis at 1 ug/ml pre-incubated for 5 mins by microtiter plate assay.

Molecules are shown by their SMILES. Calls of active or inactive are those of the source. The calls are words filed in the database; no cut-off is given here.

Take `CC/C=C\C/C=C\C/C=C\CCCCCCCc1cccc(O)c1C(=O)O`: the result was Active.
